Experimental data published in the supplement of paper PMC11061612.

Experiments:
Test in all cases: combination Emax (second highest fraction inhibited in the dose matrix, 72 h); higher = more inhibition; extreme values may be limits of the assay
[1] = tested on: BL-41 (Burkitt's Lymphoma)
In short: (§1)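 After 24 hours at 37°C and 5% CO2 in 1536-well plates, cells in DMEM/F12 or RPMI plus 10% FBS received two-drug dose matrices for 72 hours. Viability came from CellTiter-Glo 2.0 luminescence and was scaled as inhibition, anchored at 0 by vehicle wells and at 1 by blank wells. Combination Emax is taken as the second-highest inhibition in the matrix, and Bliss excess as the observed combination effect less EA + EB − EA·EB, with EA and EB the single-agent effects.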

[2] = tested on: COLO-678 (Colorectal Carcinoma)
In short: as §1

[3] = tested on: DND-41 (T-Lymphoblastic Leukemia)
In short: as §1

[4] = tested on: DiFi (Colorectal Carcinoma)
In short: as §1

[5] = tested on: ES1 (Ewing's Sarcoma)
In short: as §1

[6] = tested on: ES8 (Ewing's Sarcoma)
In short: as §1

[7] = tested on: GR-ST (B-Lymphoblastic Leukemia)
In short: as §1

[8] = tested on: HDQ-P1 (Breast Carcinoma)
In short: as §1

[9] = tested on: KCL-22 (Chronic Myelogenous Leukemia)
In short: as §1

[10] = tested on: KM12 (Colorectal Carcinoma)
In short: as §1

[11] = tested on: LN-18 (Glioblastoma)
In short: as §1

[12] = tested on: MFM-223 (Breast Carcinoma)
In short: as §1

[13] = tested on: MOLT-16 (T-Lymphoblastic Leukemia)
In short: as §1

[14] = tested on: NCI-H1792 (Lung Adenocarcinoma)
In short: as §1

[15] = tested on: NCI-H2818 (Mesothelioma)
In short: as §1

[16] = tested on: NCI-H847 (Small Cell Lung Carcinoma)
In short: as §1

[17] = tested on: SR (Other Blood Carcinomas)
In short: as §1

[18] = tested on: TC-71 (Ewing's Sarcoma)
In short: as §1

[19] = tested on: WM-115 (Melanoma)
In short: as §1

[20] = tested on: P12-ICHIKAWA (T-Lymphoblastic Leukemia)
In short: as §1

SMILES	combination Emax [1]	combination Emax [2]	combination Emax [3]	combination Emax [4]	combination Emax [5]	combination Emax [6]	combination Emax [7]	combination Emax [8]	combination Emax [9]	combination Emax [10]	combination Emax [11]	combination Emax [12]	combination Emax [13]	combination Emax [14]	combination Emax [15]	combination Emax [16]	combination Emax [17]	combination Emax [18]	combination Emax [19]	combination Emax [20]
CN(C)CCCOc1ccc(-c2ccc3ncc4c(c3c2)n(C2CCOCC2)c(=O)n4C)cn1 [AZD0156] + C=CCn1c(=O)c2cnc(Nc3ccc(N4CCN(C)CC4)cc3)nc2n1-c1cccc(C(C)(C)O)n1 [AZD1775] (first compound max 1 µM, partner max 1 µM)	1	0.226	0.848	0.637	0.682	0.646	0.78	0.469	0.895	0.731	0.291	0.653	1	0.643	0.327	0.971	0.99	0.452	0.254	
CN(C)CCCOc1ccc(-c2ccc3ncc4c(c3c2)n(C2CCOCC2)c(=O)n4C)cn1 [AZD0156] + CCN(CCO)CCCOc1ccc2c(Nc3cc(CC(=O)Nc4cccc(F)c4)[nH]n3)ncnc2c1 [AZD2811] (first compound max 1 µM, 7x7, partner max 1 µM)	0.744	0.144	0.206	0.416	0.69	1	0.276	0.211	0.333	0.0745	0.33	0.168	1	0.147	0.16	0.949	0.849	0.837	0.183	
CN(C)CCCOc1ccc(-c2ccc3ncc4c(c3c2)n(C2CCOCC2)c(=O)n4C)cn1 [AZD0156] + C[C@@H]1COCCN1C2=NC(=NC(=C2)C3(CC3)[S@](=N)(=O)C)C4=C5C=CNC5=NC=C4 [AZD6738] (first compound max 1 µM, 7x7, partner max 10 µM)	1	0.123	0.844	0.829	0.956	0.799	0.715	0.381	0.978	0.696	0.725	0.828	1	0.707	0.324	0.956	0.946	0.952	0.488	
C=CCn1c(=O)c2cnc(Nc3ccc(N4CCN(C)CC4)cc3)nc2n1-c1cccc(C(C)(C)O)n1 [AZD1775] + C[C@@H]1COCCN1C2=NC(=NC(=C2)C3(CC3)[S@](=N)(=O)C)C4=C5C=CNC5=NC=C4 [AZD6738] (first compound max 1 µM, partner max 10 µM)	1	0.199	0.929	0.895	0.948	0.905	0.78	0.76	1	0.852	0.736	0.897	1	0.866	0.475	1	1	0.941	0.595	
C=CCn1c(=O)c2cnc(Nc3ccc(N4CCN(C)CC4)cc3)nc2n1-c1cccc(C(C)(C)O)n1 [AZD1775] + O=C(c1cc(Cc2n[nH]c(=O)c3ccccc23)ccc1F)N1CCN(C(=O)C2CC2)CC1 [Olaparib] (first compound max 1 µM, partner max 10 µM)	1	0.205	0.878	0.678	0.838	0.829	0.806	0.517	0.882	0.748	0.217	0.56	1	0.707	0.415	1	0.995	0.583	0.259	
CCc1c2c(nc3ccc(O)cc13)-c1cc3c(c(=O)n1C2)COC(=O)[C@]3(O)CC [SN-38] + O=C(c1cc(Cc2n[nH]c(=O)c3ccccc23)ccc1F)N1CCN(C(=O)C2CC2)CC1 [Olaparib] (first compound max 0.3 µM, 7x7, partner max 10 µM)	1	0.396	0.947	0.701	1	0.989	0.74	0.702	0.887	0.681		0.257		0.575	0.359	1	0.982		0.391	
Cn1cnc2c(F)c(Nc3ccc(Br)cc3Cl)c(C(=O)NOCCO)cc21 [Selumetinib] + C[C@@H]1COCCN1C2=NC(=NC(=C2)C3(CC3)[S@](=N)(=O)C)C4=C5C=CNC5=NC=C4 [AZD6738] (first compound max 10 µM, 7x7, partner max 10 µM)	0.989	0.466	0.897	0.844	0.898	0.674	0.766	0.455	0.984	0.825	0.71	0.673	1	0.76	0.252		0.889	0.945	0.617	0.988
